Results taken from patent US7300770B2, “Detection of microbe contamination on elastomeric articles” (Kimberly-Clark Worldwide, Inc., priority 2004, dated 2007).

What was measured:
[1] = system: aged, pooled female urine; experiment: Bacterial quantification of aged pooled female urine by dye titration; details: 100 microliters urine
Excerpt: Table 2 presents the volume of each dye solution required for the dye color to remain steady.

aged raw chicken juice = experiment: Dye spray on aged raw chicken juice pattern and re-colorization with 1 N NaOH
[2] = Color change of dye with bacterial cell-wall compounds on paper towel; details: both experimental set-ups; 160 mg/10 mL acetonitrile
[3] = Acid-base reversibility of dye color on towel
[4] = Reichardt's dye and TMB coated towel exposed to dilute bleach; details: towel coated with mixture of Reichardt's dye and TMB
[5] = system: aged chicken juice known to have a high bacterial count; experiment: Dye coating with or without TWEEN 80 on ceramic surface exposed to aged chicken juice; details: coating with TWEEN 80 surfactant; 80 mg/10 mL acetonitrile
Excerpt: This solution was then used to coat a ceramic surface and allowed to air dry. […] After drying, a drop of aged chicken juice known to have a high bacterial count was placed on the each coating area. […] Furthermore, the addition of TWEEN® surfactant allowed for easy removal of the dye from the surface.

[6] = system: juice from the aged chicken (high bacterial levels); experiment: Isopropanol dye spray on doorknob marked with aged chicken juice; details: 160 mg dye in 10 mL isopropanol, sprayed
Excerpt: Plastic doorknobs were utilized as a “real world” surface on which to test bacterial contamination. A raw chicken leg was initially aged at room temperature for several days to ensure high bacterial levels (referred to hereinafter as “aged chicken”). Juice from the aged chicken was then used to mark the surface of one of the knobs. The other door knob was left uncontaminated as a control. Both knobs were wiped. […] The isopropanol solution of the dye was sprayed on both surfaces.

aged chicken juice = experiment: Comparative dyes dropped onto aged chicken juice on paper towel; details: aged chicken juice on SCOTT paper towel
L. acidophilus = experiment: Titration of microorganisms with Reichardt's dye on cellulosic towel; details: Lactobacillus, Gram(+), 10^7 CFU/mL, 100 microliters; 160 mg/10 mL acetonitrile
C. albicans = experiment: Titration of microorganisms with Reichardt's dye on cellulosic towel; details: yeast, 10^7 CFU/mL, 100 microliters
S. aureus [7] = experiment: Visual quantification of S. aureus on dye-treated paper, with blind study
Procedure: The color differences at lower concentrations were less distinct, particularly for the brush-coated sheet. A blind study was then conducted. […] Concentrations of these three drops were unknown to two of the experiment participants. After approximately 2 minutes, the drops were removed and blotted. Using the control regions, the concentrations of each sample were each visually estimated by these two persons. Both persons correctly estimated the concentration of the first sample to be 10^6 CFU/mL. […] The persons, however, incorrectly estimated the third sample to be 10^3 CFU/mL. […] The present inventors believe, however, that the concentration of the chromogen and uniformity of the coating may be readily selected to achieve accurate results at such low concentrations.

[8] = system: aged chicken juice (bacteria); experiment: Dye spray on hot plate: aged chicken juice versus canned chicken broth; details: 160 mg/10 mL isopropanol spray
Excerpt: Canned chicken broth was utilized as a control that would contain chicken derived products such as lipids, protein, etc., to check for potential interferences from these naturally occurring materials. Freshly opened Swanson® Chicken Broth was pipette onto a hot plate surface and wiped dry with a SCOTT® towel. Juice from raw chicken that had been stored at room temperature for several days was also pipetted onto the hot plate and wiped dry as a positive control. […] Thus, in the case of chicken, the presence of microbes was clearly responsible for triggering the change in color, and not some other component, such as chicken fat or proteins.

Influenza A = experiment: Virus detection on Reichardt's dye-coated stickers; details: undiluted virus, 50 microliters, 3 minutes
vaginal fluid samples = experiment: Dye-coated stickers tested with vaginal fluid samples
Procedure: A sticker of each concentration was tested with normal, BV positive/pH positive, and BV negative/pH positive vaginal fluid samples. […] The three states of color change were easily distinguishable.

S. aureus [9] = experiment: Titration of serially diluted S. aureus suspensions on paper towel with dye
Excerpt: 100 microliters of serially diluted S. aureus bacterial suspensions were placed onto a SCOTT® paper towel. Drops (10 microliters) of the Reichardt's dye in acetonitrile solution (40 milligrams/10 milliliters) were then pipetted onto each spot where the bacteria was placed. The dye solution changed color in less than 1 second. […] This was repeated on each spot corresponding to where different concentrations of bacteria were placed.

[10] = 100 microliters undiluted virus, 80 mg/10 mL acetonitrile with or without TWEEN 80
[11] = surfactant- and non-surfactant-containing solutions

## [O-]c1c(-c2ccccc2)cc(-[n+]2c(-c3ccccc3)cc(-c3ccccc3)cc2-c2ccccc2)cc1-c1ccccc1 [Reichardt's dye, 4-(2,4,6-triphenylpyridinium-1-yl)-2,6-diphenylphenolate]
[1]; 4 mg/ml dye solution in acetonitrile
  Volume of dye solution required for the dye color to remain steady: 120 µL
[1]; 16 mg/ml dye solution in acetonitrile
  Volume of dye solution required for the dye color to remain steady: 30 µL
Aged raw chicken juice; drop of 1 N NaOH
  Effect of 1 N NaOH on area that changed color: re-colorization of that small spot
Aged raw chicken juice; equal proportions, 30 seconds
  Color change with aged chicken juice pre-mixed with 1 molar NaOH: rapid color change
[2]
  Color change of dye with muramic acid: near instantaneous color change
[3]; after acetic acid or pH 2.0 buffer
  Effect of 1 N NaOH on the changed spots: rapid re-colorization
[3]; dried dye spots on towel
  Color change with acetic acid and pH 2.0 buffer: rapid color change
[4]
  Color response to dilute bleach solution: de-colorizing
[5]
  Time to color change: 20 to 30 s
[6]
  Color change at contaminated area of doorknob: blue to colorless
Aged chicken juice
  Color change on dropping dye onto aged chicken juice: immediately changed color
L. acidophilus
  Amount of Dye Required for Persistent Color: 110 µL
Rhinovirus; [10]
  Dye added until the color persisted: approximately 9 drops
Rhinovirus; [11]
  Discharge of dye color on virus spot: rapidly discharged
C. albicans
  Amount of Dye Required for Persistent Color: 70 µL
S. aureus [7]; Neenah Bond paper, 80 mg/10 mL acetonitrile, about 2 minutes
  S. aureus concentration giving obvious color change: ≥ 10^5 CFU/mL
S. aureus [7]; first sample, actual 10^6 CFU/mL, dip-coated sheet
  Visually estimated concentration in blind study: 10^6 CFU/mL
S. aureus [7]; second sample, actual 10^5 CFU/mL, brush-coated sheet
  Visually estimated concentration in blind study: 10^5 CFU/mL
S. aureus [7]; third sample, actual 10^4 CFU/mL, dip-coated sheet
  Visually estimated concentration in blind study: 10^3 CFU/mL
[8]
  Color change on hot plate surface: only the side containing the aged chicken juice (and thus bacteria) changed color
Polio virus; [10]
  Dye added until the color persisted: approximately 9 drops
Polio virus; [11]
  Discharge of dye color on virus spot: rapidly discharged
Influenza A
  De-colorization of sticker: less than that observed for the other viruses
Vaginal fluid samples; BV negative/pH positive sample
  Color change of dye-coated sticker: only faintly changed the color
Vaginal fluid samples; BV positive/pH positive sample
  Color change of dye-coated sticker: next sharpest color change
Vaginal fluid samples; normal vaginal fluid
  Color change of dye-coated sticker: sharpest color change
S. aureus [9]; 10 microliter drops, 40 mg/10 mL acetonitrile, on S. aureus spots
  Time for dye solution to change color: less than 1 second
S. aureus [9]; drops added until color remained steady
  Correlation of titration with level of bacterial contamination: good correlation
